Starred links: 1 amine or outer side, 2 acyl side, 3 side chain; linkers in the order of their positions; H or OH if unused. Non-standard residues stand in square brackets, D forms with d. Residues, ends and D or L forms follow the SMILES beside them. Groups on a side chain read outwards from the residue. No end group written: not given here. *: point of attachment. C16 diacid = O=C(O)CCCCCCCCCCCCCCC(=O)*; γGlu = O=C(O)[C@H](CCC(=O)[*:2])N[*:1]; Palmitoyl = CCCCCCCCCCCCCCCC(=O)*; AEEA = NCCOCCOCC(=O)O; Aib = CC(C)(N)C(=O)O
T1: human CRF2α receptor (Homo sapiens, UniProt Q13324)
T1 construct: expressed in transfected cells; host or cells: TeloHEAC
T1 sequence (Q13324 1-411): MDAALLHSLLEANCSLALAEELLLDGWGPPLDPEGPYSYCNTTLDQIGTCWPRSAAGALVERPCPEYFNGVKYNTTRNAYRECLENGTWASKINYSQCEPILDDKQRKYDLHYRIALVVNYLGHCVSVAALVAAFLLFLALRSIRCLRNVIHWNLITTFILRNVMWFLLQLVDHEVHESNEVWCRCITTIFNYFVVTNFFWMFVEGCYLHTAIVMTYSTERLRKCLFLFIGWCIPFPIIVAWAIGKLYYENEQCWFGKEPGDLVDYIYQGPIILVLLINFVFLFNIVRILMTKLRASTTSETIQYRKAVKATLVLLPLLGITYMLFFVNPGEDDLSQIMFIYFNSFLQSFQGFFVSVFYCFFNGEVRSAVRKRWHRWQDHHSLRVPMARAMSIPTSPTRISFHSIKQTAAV

T2: CRF1R receptor (anti-target) (UniProt P34998 24-415, limits assumed)
T2 sequence (looked up): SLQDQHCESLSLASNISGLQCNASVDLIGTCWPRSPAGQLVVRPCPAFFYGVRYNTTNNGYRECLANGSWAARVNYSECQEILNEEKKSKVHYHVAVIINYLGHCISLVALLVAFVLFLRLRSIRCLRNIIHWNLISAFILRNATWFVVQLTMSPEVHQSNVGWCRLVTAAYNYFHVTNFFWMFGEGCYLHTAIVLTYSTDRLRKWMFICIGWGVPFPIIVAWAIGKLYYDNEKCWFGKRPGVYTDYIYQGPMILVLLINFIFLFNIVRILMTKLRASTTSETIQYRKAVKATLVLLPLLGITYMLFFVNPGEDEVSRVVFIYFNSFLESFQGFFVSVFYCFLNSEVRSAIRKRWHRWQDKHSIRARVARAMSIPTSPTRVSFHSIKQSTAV

B1: peptide of SEQ ID NO: 187 (peptide)
peptide: IVLSLD[dV]PIKLK([γGlu-C16 diacid])QILLKQERQK[Aib]QREQAEKNKQILAQV-NH2
modifications: N-terminus assumed
SMILES: CC[C@H](C)[C@H](N)C(=O)N[C@H](C(=O)N[C@@H](CC(C)C)C(=O)N[C@@H](CO)C(=O)N[C@@H](CC(C)C)C(=O)N[C@@H](CC(=O)O)C(=O)N[C@@H](C(=O)N1CCC[C@H]1C(=O)N[C@H](C(=O)N[C@@H](CCCCN)C(=O)N[C@@H](CC(C)C)C(=O)N[C@@H](CCCCNC(=O)CC[C@H](NC(=O)CCCCCCCCCCCCCCC(=O)O)C(=O)O)C(=O)N[C@@H](CCC(N)=O)C(=O)N[C@H](C(=O)N[C@@H](CC(C)C)C(=O)N[C@@H](CC(C)C)C(=O)N[C@@H](CCCCN)C(=O)N[C@@H](CCC(N)=O)C(=O)N[C@@H](CCC(=O)O)C(=O)N[C@@H](CCCNC(=N)N)C(=O)N[C@@H](CCC(N)=O)C(=O)N[C@@H](CCCCN)C(=O)NC(C)(C)C(=O)N[C@@H](CCC(N)=O)C(=O)N[C@@H](CCCNC(=N)N)C(=O)N[C@@H](CCC(=O)O)C(=O)N[C@@H](CCC(N)=O)C(=O)N[C@@H](C)C(=O)N[C@@H](CCC(=O)O)C(=O)N[C@@H](CCCCN)C(=O)N[C@@H](CC(N)=O)C(=O)N[C@@H](CCCCN)C(=O)N[C@@H](CCC(N)=O)C(=O)N[C@H](C(=O)N[C@@H](CC(C)C)C(=O)N[C@@H](C)C(=O)N[C@@H](CCC(N)=O)C(=O)N[C@H](C(N)=O)C(C)C)[C@@H](C)CC)[C@@H](C)CC)[C@@H](C)CC)C(C)C)C(C)C

How the values were obtained:
human CRF2α receptor = molecular target: T1, human CRF2α receptor; assay: cAMP agonism at human CRF2α receptor in TeloHEAC cells, FA modified peptides (Example 19.9); assay type: cell-based; settings: 0% HSA, relative to urocortin 2
Method: Agonism of compounds for human corticotropin-releasing factor 2α (CRF2α receptor) was determined by a functional assay measuring cAMP modulation upon treatment of TeloHEAC cells stably expressing human CRF2α receptor.
Compounds were dissolved at 0.5 mM in 100% DMSO and serially diluted (1:2) in 100% DMSO for 16 dilutions. 20 nL of each dilution was then transferred to 384-well assay plate using an acoustic droplet ejection instrument. 5 μL of compound buffer (1×HBSS; 20 mM HEPES, 2 mM IBMX, 0% or 0.2% HSA) were then added to each well.
Prior to use, frozen cells were thawed quickly at 37° C. and washed (5 min at 900 rpm) with 20 mL cell buffer (1×HBSS; 20 mM HEPES). Cells were resuspended in cell buffer and adjusted to a cell density of 800.000 cells/ml.
5 μL cells (final dell density: 4000 cells/well) were dispensed in the compound-containing 384-well assay plate and incubated for 30 minutes 37° C.
The CAMP level in treated cells was determined using the Cisbio 62AM4PEC kit according to manufacturer's instruction. Finally, plates were incubated for 1 h at room temperature before measuring the fluorescence ratio between 665/620 nm.
The percent activity value (E %) was calculated by setting 100 nM of urocortin 2 (UCN2) as 100%. The in vitro potency of the compounds was quantified by determining the concentrations that caused 50% activation of maximal response (EC50) relative to urocortin 2.

[1] = molecular target: T2, CRF1R receptor (anti-target); assay: cell-based or functional assay

Row | Molecule | EC50 (human CRF2α receptor) [nM] | CRF1/CRF2 ratio (of EC50) [1] | CRF1 EC50 (cAMP, HTRF) [1] [nM]
1 | CCCCCCCCCCCCCCCC(=O)N[C@@H](CCC(=O)NCCOCCOCC(=O)NCCOCCOCC(=O)NCCCC[C@H](NC(=O)[C@H](CC(C)C)NC(=O)[C@H](CCCCN)NC(=O)[C@@H](NC(=O)[C@@H]1CCCN1C(=O)[C@H](NC(=O)[C@H](CC(=O)O)NC(=O)[C@H](CC(C)C)NC(=O)[C@H](CO)NC(=O)[C@H](CC(C)C)NC(=O)[C@@H](NC(=O)[C@@H](N)[C@@H](C)CC)C(C)C)C(C)C)[C@@H](C)CC)C(=O)N[C@@H](CCC(N)=O)C(=O)N[C@H](C(=O)N[C@@H](CC(C)C)C(=O)N[C@@H](CC(C)C)C(=O)N[C@@H](CCCCN)C(=O)N[C@@H](CCC(N)=O)C(=O)N[C@@H](CCC(=O)O)C(=O)N[C@@H](CCCNC(=N)N)C(=O)N[C@@H](CCC(N)=O)C(=O)N[C@@H](CCCCN)C(=O)NC(C)(C)C(=O)N[C@@H](CCC(N)=O)C(=O)N[C@@H](CCCNC(=N)N)C(=O)N[C@@H](CCC(=O)O)C(=O)N[C@@H](CCC(N)=O)C(=O)N[C@@H](C)C(=O)N[C@@H](CCC(=O)O)C(=O)N[C@@H](CCCCN)C(=O)N[C@@H](CC(N)=O)C(=O)N[C@@H](CCCCN)C(=O)N[C@@H](CCC(N)=O)C(=O)N[C@H](C(=O)N[C@@H](CC(C)C)C(=O)N[C@@H](C)C(=O)N[C@@H](CCC(N)=O)C(=O)N[C@H](C(N)=O)C(C)C)[C@@H](C)CC)[C@@H](C)CC)C(=O)O [compound 205] (H-IVLSLD[dV]PIKLK([AEEA-AEEA-γGlu-Palmitoyl])QILLKQERQK[Aib]QREQAEKNKQILAQV-NH2; N-terminus assumed) | 0.32 |  | 
2 | CCCCCCCCCCCCCCCC(=O)N[C@@H](CCC(=O)N[C@@H](CCC(=O)NCCOCCOCC(=O)NCCOCCOCC(=O)NCCCC[C@H](NC(=O)[C@H](CC(C)C)NC(=O)[C@H](CCCCN)NC(=O)[C@@H](NC(=O)[C@@H]1CCCN1C(=O)[C@H](NC(=O)[C@H](CC(=O)O)NC(=O)[C@H](CC(C)C)NC(=O)[C@H](CO)NC(=O)[C@H](CC(C)C)NC(=O)[C@@H](NC(=O)[C@@H](N)[C@@H](C)CC)C(C)C)C(C)C)[C@@H](C)CC)C(=O)N[C@@H](CCC(N)=O)C(=O)N[C@H](C(=O)N[C@@H](CC(C)C)C(=O)N[C@@H](CC(C)C)C(=O)N[C@@H](CCCCN)C(=O)N[C@@H](CCC(N)=O)C(=O)N[C@@H](CCC(=O)O)C(=O)N[C@@H](CCCNC(=N)N)C(=O)N[C@@H](CCC(N)=O)C(=O)N[C@@H](CCCCN)C(=O)NC(C)(C)C(=O)N[C@@H](CCC(N)=O)C(=O)N[C@@H](CCCNC(=N)N)C(=O)N[C@@H](CCC(=O)O)C(=O)N[C@@H](CCC(N)=O)C(=O)N[C@@H](C)C(=O)N[C@@H](CCC(=O)O)C(=O)N[C@@H](CCCCN)C(=O)N[C@@H](CC(N)=O)C(=O)N[C@@H](CCCCN)C(=O)N[C@@H](CCC(N)=O)C(=O)N[C@H](C(=O)N[C@@H](CC(C)C)C(=O)N[C@@H](C)C(=O)N[C@@H](CCC(N)=O)C(=O)N[C@H](C(N)=O)C(C)C)[C@@H](C)CC)[C@@H](C)CC)C(=O)O)C(=O)O [compound 206] (H-IVLSLD[dV]PIKLK([AEEA-AEEA-γGlu-γGlu-Palmitoyl])QILLKQERQK[Aib]QREQAEKNKQILAQV-NH2; N-terminus assumed) | 0.09 |  | 
3 | CCCCCCCCCCCCCCCC(=O)N[C@@H](CCC(=O)NCCOCCOCC(=O)NCCOCCOCC(=O)NCCCC[C@H](NC(=O)[C@H](CC(C)C)NC(=O)[C@H](CCCCN)NC(=O)[C@@H](NC(=O)[C@@H]1CCCN1C(=O)[C@H](NC(=O)[C@H](CC(=O)O)NC(=O)[C@H](CC(C)C)NC(=O)[C@H](CO)NC(=O)[C@H](CC(C)C)NC(=O)[C@@H](NC(=O)[C@@H](N)[C@@H](C)CC)C(C)C)C(C)C)[C@@H](C)CC)C(=O)N[C@@H](CCC(N)=O)C(=O)N[C@H](C(=O)N[C@@H](CC(C)C)C(=O)N[C@@H](CC(C)C)C(=O)N[C@@H](CCCCN)C(=O)N[C@@H](CCC(N)=O)C(=O)N[C@@H](CCC(=O)O)C(=O)N[C@@H](CCCNC(=N)N)C(=O)N[C@@H](CCC(N)=O)C(=O)N[C@@H](CCCCN)C(=O)N[C@@H](CCCCN)C(=O)NC(C)(C)C(=O)N[C@@H](CCCNC(=N)N)C(=O)N[C@@H](CCC(N)=O)C(=O)N[C@@H](CCCCN)C(=O)N[C@@H](C)C(=O)N[C@@H](CCC(=O)O)C(=O)N[C@@H](CCCCN)C(=O)N[C@@H](CC(N)=O)C(=O)N[C@@H](CCCCN)C(=O)N[C@@H](CCC(N)=O)C(=O)N[C@H](C(=O)N[C@@H](CC(C)C)C(=O)N[C@@H](C)C(=O)N[C@@H](CCC(N)=O)C(=O)N[C@H](C(N)=O)C(C)C)[C@@H](C)CC)[C@@H](C)CC)C(=O)O [compound 210] (H-IVLSLD[dV]PIKLK([AEEA-AEEA-γGlu-Palmitoyl])QILLKQERQKK[Aib]RQKAEKNKQILAQV-NH2) | 2.98 |  | 
4 | CCCCCCCCCCCCCCCC(=O)N[C@@H](CCC(=O)N[C@@H](CCC(=O)NCCOCCOCC(=O)NCCOCCOCC(=O)NCCCC[C@H](NC(=O)[C@H](CC(C)C)NC(=O)[C@H](CCCCN)NC(=O)[C@@H](NC(=O)[C@@H]1CCCN1C(=O)[C@H](NC(=O)[C@H](CC(=O)O)NC(=O)[C@H](CC(C)C)NC(=O)[C@H](CO)NC(=O)[C@H](CC(C)C)NC(=O)[C@@H](NC(=O)[C@@H](N)[C@@H](C)CC)C(C)C)C(C)C)[C@@H](C)CC)C(=O)N[C@@H](CCC(N)=O)C(=O)N[C@H](C(=O)N[C@@H](CC(C)C)C(=O)N[C@@H](CC(C)C)C(=O)N[C@@H](CCCCN)C(=O)N[C@@H](CCC(N)=O)C(=O)N[C@@H](CCC(=O)O)C(=O)N[C@@H](CCCNC(=N)N)C(=O)N[C@@H](CCC(N)=O)C(=O)N[C@@H](CCCCN)C(=O)N[C@@H](CCCCN)C(=O)NC(C)(C)C(=O)N[C@@H](CCCNC(=N)N)C(=O)N[C@@H](CCC(N)=O)C(=O)N[C@@H](CCCCN)C(=O)N[C@@H](C)C(=O)N[C@@H](CCC(=O)O)C(=O)N[C@@H](CCCCN)C(=O)N[C@@H](CC(N)=O)C(=O)N[C@@H](CCCCN)C(=O)N[C@@H](CCC(N)=O)C(=O)N[C@H](C(=O)N[C@@H](CC(C)C)C(=O)N[C@@H](C)C(=O)N[C@@H](CCC(N)=O)C(=O)N[C@H](C(N)=O)C(C)C)[C@@H](C)CC)[C@@H](C)CC)C(=O)O)C(=O)O [compound 211] (H-IVLSLD[dV]PIKLK([AEEA-AEEA-γGlu-γGlu-Palmitoyl])QILLKQERQKK[Aib]RQKAEKNKQILAQV-NH2) | 0.94 |  | 
5 | B1 |  | > 500 | > 100

Source: patent publication US12679878B2, “CRF2 receptor agonists and their use in therapy” (SANOFI, priority 2020, dated 2026)
